Experimental data: patent publication US4980377A, “1-(aminophenyl)-2-aminopropanone derivatives” (Laboratoire L. Lafon, priority 1984, dated 1990)
“Also recorded” adds a separate entry of the source.

Key:
[1] = test system: mice; test: Spontaneous motility; assay type: in vivo, mouse; conditions: i.p.
Description: 0.5 hour after they have received CRL 41 153, the mice (6 per dose, 12 control animals) are placed in an actimeter, where their motility is recorded for 30 minutes.

[2] = test system: mice; test: Behavioral despair; assay type: in vivo, mouse; conditions: forcibly immersed mice, i.p.
Description: Half an hour after they have received CRL 41 153, groups of 6 mice are placed in a beaker filled with water to a height of 6 cm. The total period of immobility between the 2nd and 6th minutes following immersion is noted.

[3] = test system: mice; test: Interaction with reserpine; assay type: in vivo, mouse; conditions: i.p.
Description: Four hours after the intraperitoneal injection of 2.5 mg/kg of reserpine, groups of 6 mice receive CRL 41 153.

[4] = test system: mice; test: Overall behavior and reactivities in mice; assay type: in vivo, mouse; conditions: dose not stated
Description: (§1) In the neuropsychopharmacological study which follows, a solution of CRL 41 153 in distilled water (pH 1.5) was administered intraperitoneally in a volume of 20 ml/kg to male mice and 5 ml/kg to male rats.
(§2) Groups of three animals are observed before and then 0.25 hour, 0.50 hour, 1 hour, 2 hours, 3 hours and 24 hours after the administration of CRL 41 153.

[5] = test system: gravid White New Zealand female rabbits; test: Teratogenicity in gravid White New Zealand rabbits; assay type: in vivo, rabbit; conditions: day 5 to day 18 of gestation; for Affected foetuses, %: normal limit 1.5%
Description: The protocol used comprised administering to gravid White New Zealand female rabbits (weighing each about 2900-3000 grams before gestation) a daily dose of 0 (batch of control animals), 5,10 or 50 mg/kg of each product to be tested by gastrogavage from day 5 to day 18 of gestation, then carrying out a cesarean operation on day 29 of gestation in order to enumerate:
(i) the total number of foestuses, and
(ii) the total number of foestuses presenting at least one malformation.
To appreciate the results of such a protocol it must be noted that natural malformations may occur. Statistically, the percentage of foetuses presenting at least one malformation in any control batch of gravid White New Zealand female rabbits is lower than or equal to 1.5% with respect to the total number of foetuses.
To be precise in this protocol a malformation comprises at least one of the following cases: articular limb blocade, anorous foetus, deviated tail, shorter tail, skull deformation, exemcephalia.

[6] = test system: mice; test: Interaction with barbital; assay type: in vivo, mouse; conditions: i.p., barbital 220 mg/kg
Description: Half an hour after the administration of CRL 41 153, groups of 10 mice receive an intraperitoneal injection of barbital (220 mg/kg).

[7] = pH of solutions in distilled water; assay type: physicochemical
Description: The neuropsychopharmacological study was undertaken according to the procedures described above for CRL 41 153, CRL 41 213 being adminstered intraperitoneally, in solution in distilled water, in a volume of 20 ml/kg to male mice and a volume of 5 ml/kg to male rats, and the pH of the injected solution varying with the concentration of CRL 41 213 according to the data given in Table II below.

[8] = test system: mice; test: Motility reduced by habituation to the enclosure; assay type: in vivo, mouse; conditions: i.p.
Description: After they have stayed In the actimeters for 18 hours, (he mice (6 per dose, 12 control animals) receive CRL 41 153. They are immediately returned to their respective enclosures and, half an hour later, their motility is recorded for 30 minutes.

[9] = test system: rats; test: Interaction with amphetamine; assay type: in vivo, rat; conditions: i.p.
Description: Amphetamine (2 mg/kg) is injected intraperitoneally into groups of 6 rats 30 minutes after the administration of CRL 41 153. […] 4 mg/kg and 16 mg/kg, CRL 41 153 potentiates the intensity and duration of the stereotypies induced by amphetamine.

[10] = test system: rats; test: Overall behavior and reactivities in rats; assay type: in vivo, rat; conditions: dose not stated
Description: as §1, §2

[11] = test system: rats; test: Interaction with apomorphine in rats; assay type: in vivo, rat; conditions: i.p.
Description: CRL 41 153 is administered to groups of 6 rats 0.5 hour before the subcutaneous injection of 0.5 mg/kg of apomorphine.

[12] = test system: CNS; test: Neuropsychopharmacological profile as a whole; assay type: in vivo, mice and rats
Description: as §1

[13] = test system: dogs; test: Cardiovascular study in anesthetized dogs; assay type: in vivo, dog
Description: Two dogs (average weight: 14.1 kg), anesthetized with nembutal, receive CRL 41 194 by intraduodenal administration at successive doses of 0.1 mg/kg, 0.5 mg/kg, 1 mg/kg, 2.5 mg/kg, 5 mg/kg and 10 mg/kg (in solution in physiological solvent).
The blood pressure, the heart rate, the blood flow through the femoral artery, the blood flow through the vertebral artery and the rectal temperature are measured. The coloration of the skin and the coloration of the bile, collected by catheterization of the bile duct after ligature of the cystic duct, are observed.
4 dogs (average weight: 14 kg), anesthetized with nembutal, receive CRL 41 221 by intraduodenal administration at successive doses of 0.1 mg/kg, 0.5 mg/kg, 1 mg/kg, 2.5 mg/kg, 5 mg/kg and 10 mg/kg. The blood pressure, the heart rate, the blood flow through the femoral artery, the blood flow through the vertebral artery and the rectal temperature are measured. The coloration of the skin is observed.

[14] = test system: mice; test: Interaction with oxotremorine; assay type: in vivo, mouse; conditions: i.p.
Description: CRL 41 153 is administered to groups of 6 mice 0.5 hour before the intraperitoneal injection of 0.5 mg/kg of oxotremorine.

[15] = test system: mice; test: Motility reduced by hypoxic aggression; assay type: in vivo, mouse; conditions: i.p.
Description: Half an hour after they have received CRL 41 153, the mice (10 per dose, 20 control animals) are subjected to acute hypobaric anoxia [pressure reduction of 600 mm Hg (i.e. about 8×10^4 Pa) in 90 seconds; release of vacuum in 45 seconds] and are then placed in an actimeter, where their motility is recorded for 10 minutes.

[16] = test system: mice; test: Interaction with apomorphine in mice; assay type: in vivo, mouse; conditions: i.p.
Description: Groups of 6 mice receive CRL 41 153 0.5 hour before the subcutaneous injection of 1 or 16 mg/kg of apomorphine.

[17] = 12.8 g/liter in distilled water
[18] = ≤0.05 g/liter in distilled water
[19] = anesthetized dogs, intraduodenal

Structure (SMILES) | Spontaneous motor activity [1] | Period of immobility due to despair [2] | Effect on hypothermia induced by reserpine [3] | Overall behavior: observed effects (summary) [4] | Stereotype movements (summary) [4] | Affected foetuses, number ([5]; 5 mg/kg daily) | Total foetuses (live) ([5]; 5 mg/kg daily) | Affected foetuses, % ([5]; 5 mg/kg daily) [%] | Affected foetuses, number ([5]; 10 mg/kg daily) | Total foetuses (live) ([5]; 10 mg/kg daily) | Affected foetuses, % ([5]; 10 mg/kg daily) [%] | Duration of the sleep induced by barbital [6] | pH ([7]; 0.1 g/liter in distilled water) | pH ([7]; 0.4 g/liter in distilled water) | pH ([7]; 0.8 g/liter in distilled water) | pH ([7]; 1.6 g/liter in distilled water) | pH ([7]; 6.4 g/liter in distilled water) | pH [7, 17] | pH [7, 18] | Motor activity of mice accustomed to their enclosure [8] | further results
CC(C(=O)c1ccc(N)cc1)N(C)C (centres unmarked) [CRL 41 233] | an increase in the spontaneous motor activity of mice | a decrease in the period of immobility | antagonism of the hypothermia | excitation with hyperreactivity in mice and rats | the presence of stereotype movements in mice and rats | 1 | 89 | 1.12 | 0 | 85 | 0 | a decrease in the duration of the sleep induced by barbital | 5.0 | 4.0 | 3.5 | 3.0 | 2.0 | 1.5 | 5.5 | resumption in the motor activity of mice accustomed to their enclosure | pH ([7]; 0.2 g/liter in distilled water): 4.5; pH ([7]; 3.2 g/liter in distilled water): 2.5; pH ([7]; 50 g/liter in distilled water): 1.0; Effect on stereotypies induced by amphetamine [9]: potentiation of the stereotypies; Overall behavior: observed effects (summary) [10]: excitation with hyperreactivity in mice and rats; Stereotype movements (summary) [10]: the presence of stereotype movements in mice and rats; Effect on stereotypies induced by apomorphine [11]: potentiation of the stereotypies; Antidepressant effects (overall) ([12]; conclusion of the tests): antidepressant and stimulant properties; Stimulant effects (overall) ([12]; conclusion of the tests): antidepressant and stimulant properties; Vasodilator (conclusion) [13]: vasodiating properties; also recorded: vasodilating properties; Rectal temperature ([13]; anesthetized dogs): large increase in the rectal temperature; Femoral flow [13, 19]: increases the femoral and vertebral flows as from a dose of 5 mg/kg; Heart rate [13, 19]: the tachycardiac effect appearing at 10 mg/kg; Vertebral flow [13, 19]: increases the femoral and vertebral flows as from a dose of 5 mg/kg; Effect on hypothermic action of oxotremorine [14]: antagonism of the hypothermia; Motor recovery of mice after hypobaric hypoxia [15]: improvement in the motor recovery; Effect on hypothermia induced by apomorphine [16]: antagonism of the hypothermia
CC(NC1CC1)C(=O)c1ccc(N)cc1 (centres unmarked) [CRL 41 246] | an increase in the spontaneous motor activity of mice | a reduction in the period of immobility | antagonism of the hypothermia | excitation with hyperreactivity in mice and rats | the presence of stereotype movements in mice and rats | 1 | 89 | 1.12 | 0 | 94 | 0 | a reduction in the duration of the sleep induced by barbital | 5.0 | 4.5 | 4.0 | 3.5 | 3.0 | 2.5 | 5.5 | resumption in the motor activity of mice accustomed to their enclosure | Effect on ptosis induced by reserpine [3]: antagonism of the ptosis induced by reserpine; Effect on stereotypies induced by amphetamine [9]: potentiation of the stereotypies; Overall behavior: observed effects (summary) [10]: excitation with hyperreactivity in mice and rats; Stereotype movements (summary) [10]: the presence of stereotype movements in mice and rats; Effect on stereotypies induced by apomorphine [11]: potentiation of the stereotypies; Antidepressant effects (overall) ([12]; conclusion of the tests): antidepressant effects; Stimulant effects (overall) ([12]; conclusion of the tests): stimulant effects; α-adrenergic stimulant effects (overall) ([12]; conclusion of the tests): α-adrenergic stimulant effects; Peripheral α-adrenergic signs (mydriasis, salivation, lacrimation, exophthalmos) ([12]; species and dose not stated): mydriasis; also recorded: salivation; Vasodilator (conclusion) [13]: vasodiating properties; Effect on hypothermic action of oxotremorine [14]: antagonism of the hypothermia; Effect on trembling induced by oxotremorine [14]: antagonism of the trembling induced by oxotremorine; Motor recovery of mice after hypobaric hypoxia [15]: improvement in the motor recovery; Effect on hypothermia induced by apomorphine [16]: antagonism of the hypothermia
